Consider 84 molecules from a melting point compilation (Tetko et al.; mined from patent text by program, amines drawn as free bases though some values may be those of a salt).

Broadly, the melting point is the temperature of the solid-liquid transition.

The molecule `CC(C)(C)CC(C)(C)NC(=O)c1cc(C(C)(C)C)c(OC(=O)c2cc(C(C)(C)C)c(O)c(C(C)(C)C)c2)c(C(C)(C)C)c1` registered a melting point of 213 to 215 °C. On to `Cc1c(F)c(N)c(Cl)c2c1c(=O)c(C(=O)O)cn2-c1cc(N)c(F)cc1F`, for which the melting point is > 280 °C. Take `CC(C)CCN1C(=O)C(NC(=O)Oc2ccccc2)C(=O)N(c2ccccc2)c2ccccc21` (centres undefined): the melting point was determined as 70 °C. As for `COC(=O)Nc1nc2cc(C(O)c3ccc(F)cc3)ccc2[nH]1` (centres undefined), the figure is 300 °C. Molecule `Cc1ccc2c(c1)c(N1CCN(C(=O)c3cccs3)CC1)c(C#N)c(=O)n2CCN1CCCC1` came in with a melting point of 139 to 143 °C. `Cc1oc(-c2ccccc2)nc1COc1ccc(COc2nn(Cc3ccccc3)cc2CC(=O)O)cn1` registered a melting point of 87 to 88 °C.

As to `CNC(=S)NS(=O)(=O)c1cc(CCNC(=O)c2cc(Cl)ccc2OC)ccc1-c1cccs1`, the melting point was in the range of 189 to 191 °C. In the case of `Cc1csc(C2=CCN(CCCC(O)c3ccc(F)cc3)CC2)n1` (centres undefined) it was 89 to 90.5 °C; in that of `CCOC(=O)C(Cc1ccc(C(F)(F)F)cc1)C(=O)c1ccc(F)c(F)c1` (centres undefined), 48 to 49 °C.

For the molecule `COc1ccc2c(c1)-c1nn(CCCl)c3ccc([N+](=O)[O-])c(c13)N2`, the melting point is 264 to 265 °C. Regarding `COc1c(C2CCN(CCCCNC(=O)c3cc(-c4ccc(C#N)cc4)nn3CCO)CC2)ccc2c1CCCC2`, the melting point was found to be 152 °C. `C#CC(O)(C(Oc1ccc(F)cc1)n1cncn1)C(C)(C)C` (centres undefined) gave a melting point of 134 to 135 °C. In turn, `COc1ccc2c(c1)C=Cc1cc(C)ccc1C2c1cn(-c2ccnc(N(C)CC(=O)Nc3nc(CC(=O)O)cs3)n2)c(=O)[nH]c1=O` (centres undefined) returned a melting point of 186 °C. As for `CCON1CCC2(CC1)NC(=O)C(c1c(C)cc(C)cc1C)=C2O`, the figure is > 250 °C; as for `O=c1[nH][nH]c(=O)c2nc3cc(Cl)ccc3cc12`, 353 to 355 °C; as for `COc1ccccc1-c1n[nH]c2c(NCCO)cc(C)nc12`, 193 to 194 °C. Turning to `CC(Oc1ccc(OC(C)C(=O)O)cc1)C(=O)O` (centres undefined), the melting point fell in the range of 235 to 240 °C. Turning to `CC(=O)c1cc(-c2ccc(C(F)(F)F)cc2)oc1C`, the melting point lay within 87 to 88 °C. Take `O=C(O)/C=C/c1ccc(C(=C2CCCCCC2)c2ccc(O)c(F)c2)cc1`: the melting point was 164 to 165 °C. The molecule `CCOC(=O)c1nn(C)cc1C(F)F` yielded a melting point of 30 to 31 °C. In turn, `CN(C(=O)Oc1ccc(Cl)c(C(C)(C)C)c1)c1cccc(Cl)c1` displayed a melting point of 65 to 67 °C. Take `NS(=O)(=O)c1cccc(-c2noc(-c3cnn4c(C(F)F)cc(-c5ccc(Cl)cc5)nc34)n2)c1`: the melting point was determined as 231 °C. `CC(=O)OC(C(=O)O)(C(=O)N(C(C)=O)C(C)=O)c1ccc(Cl)c(C)c1` (centres undefined) returned a melting point of 169 to 171 °C. Molecule `Cc1cc(NC(=O)NN(c2ccccc2)c2cccc(C#N)c2)ccc1N1CCCCC1=O` gave a melting point of 161 to 162 °C. As for `C[C@H](CN(C(=O)C1C2CCC1CC2)c1ccccn1)N1CCN(c2cccc3[nH]ccc23)CC1` (some centres undefined), the figure is 176 to 179 °C; as for `Cc1ccc(NC(=O)c2ccc(CN(C)C)c(C(F)(F)F)c2)cc1-c1ccc2ccncc2c1`, 169 to 172 °C; as for `Cc1ccc2oc(-c3ccccc3-c3nnnn3C(c3ccccc3)(c3ccccc3)c3ccccc3)c(Br)c2c1`, 199 to 200 °C. `CCOC(=O)CN1C(=O)c2cccc3c(Cl)ccc1c23` had a melting point of 138 to 140 °C. Turning to `CN1CCN(c2ccnc3c(NC(=O)c4ccccc4[N+](=O)[O-])cccc23)C1=O`, the melting point lay in the range of 226 to 228 °C. In the case of `CC(=O)Nc1ccccn1` it was 155 to 156 °C; in that of `CCOC(=O)c1cccc2c1Nc1ccc(C(=O)c3ccccc3)cc1N2`, 175 to 177 °C. As for `FC(F)(F)c1ccc(Cl)c(-c2cccn3nc(Cl)nc23)c1`, the figure is 156 to 158 °C; as for `Cc1ccc(C23CCN(C)CC2O3)cc1` (centres undefined), 46 to 50 °C. Molecule `C[C@H]1[C@H](OS(C)(=O)=O)CN1C(c1ccccc1)c1ccccc1` (relative stereo) showed a melting point of 68 to 71 °C. The molecule `Cn1c(=O)n(OCc2ccccc2)c(=O)c2cc(F)c(F)cc21` returned a melting point of 167 to 169 °C. In the case of `CCCC=Cc1c(C)nc(C(C)C)c(CO)c1-c1ccc(F)cc1`, the melting point was 106 to 108 °C. In turn, `CCCCCCCCCCCCCCCC1CCCC(c2ccc(N)cc2)(c2ccc(N)cc2)C1` (centres undefined) showed a melting point of 107 °C. Regarding `CC(C)(C)c1cc(Br)c(O)c(Br)c1`, the melting point lay within 65 to 69 °C.

On to `COC(=O)NCc1cc(C(C)=NO)ccc1Cl`, for which the melting point fell in the range of 124 to 127 °C. As for `CCc1ccc2c(c1)c1cc(OC)cc3c(=O)c(Cc4cccnc4)cn2c31`, the figure is 109 to 110 °C; as for `COc1ccc(OC)c(S(=O)(=O)Nc2onc(C)c2Br)c1`, 118 to 120 °C. On to `CCOC(=O)C1=C(CS(=O)c2ccccc2)Nc2ccnc(OC(C)C)c2C1c1ccccc1C(F)(F)F` (centres undefined), for which the melting point lay in the range of 206 to 208 °C.

Consider `COCCN(CCOC)Cc1nc(-c2ncn3c2[C@@H]2CCN2C(=O)c2c(Cl)cccc2-3)no1`, for which the melting point lay within 188 to 190 °C. In turn, `N#CN=c1ccccn1C1=CC(CF)(CF)Oc2ccc([N+](=O)[O-])cc21` had a melting point of 238 to 240 °C. In the case of `CC(CN1CCCC1)N1c2ccccc2Sc2ccc(C(=O)NC3CCCC3)cc21` (racemic) it was 132 °C; in that of `CSc1nn2c(N3CCN(c4ccccc4)CC3)cc(C)nc2c1S(=O)(=O)c1ccccc1`, > 230 °C; in that of `Cc1ccc(F)c2c1N(CC1CCCO1)C(=O)C21COc2cc3c(cc21)CCO3` (centres undefined), 175 to 176 °C. In the case of `CCn1cc(C(c2ccc(Cl)cc2Cl)n2cncn2)c2cc(Br)ccc21` (centres undefined), the melting point is 124 to 126 °C. With `CC[C@H](C)[C@H](OCc1cc(F)cc(F)c1)[C@H]1[C@H]([N+](=O)[O-])[C@H](c2ccccc2)N[C@@H]1C(=O)NCC(=O)O`, the melting point fell in the range of 140 to 141 °C. Turning to `CCCc1nc(SC)c(C(O)(C(=O)O)C(C)C)n1Cc1ccc(-c2ccccc2S(=O)(=O)NC(=O)NCc2ccccc2)cc1` (centres undefined), the melting point worked out at 180 °C.

In turn, `COCCNC(=O)c1cc(-c2cccc3cc(Cc4cc(F)cc(Cl)c4)sc23)ccc1F` registered a melting point of 84 to 85 °C.

The molecule `COc1ccc(-c2ccc(C(N)=O)cc2)cc1Br` displayed a melting point of 246 to 250 °C. In turn, `CCNC(=O)C1OC(n2cnc3c(NCc4ccc(O)cc4)ncnc32)C(O)C1O` (centres undefined) yielded a melting point of 180 °C. As for `COc1ccc(CSc2nc(-c3ccccc3)n(Cc3cc4c(cc3Cl)OCO4)c2C=O)cc1`, the figure is 120 °C; as for `COc1cc2c(Nc3cccc(Br)c3)c(C#N)cnc2c(OC)c1OC`, 211 to 213 °C. `O=C(CCC(=O)OC(=O)CCC(=O)OCc1ccccc1)OCc1ccccc1`: the melting point was 70 to 71 °C.

As for `O=[N+]([O-])c1nccn1C(Br)CBr` (centres undefined), the melting point was in the range of 102 to 106 °C. In turn, `N#CC(c1ccnc(NCCc2c[nH]cn2)n1)c1nc2ccccc2s1` (centres undefined) came in with a melting point of 257 to 258 °C. The molecule `O=C1c2ccccc2C(=O)N1CC(Br)(c1ccccc1)C(F)Br` (centres undefined) had a melting point of 163 to 164 °C. For `CC(=CC(=O)O)CCCCCCCCCCCCC(=O)O`, the melting point is 77 °C. Turning to `O=C(Nc1ccc(C(=O)N2CCc3cn[nH]c3-c3sccc32)cc1)c1ccc(F)cc1Cl`, the melting point lay in the range of 258 to 266 °C. Take `Cc1ccccc1COc1cccnc1NC(=N)Nc1ccccc1`: the melting point lay within 157 to 158 °C. As for `O=S1(=O)O[C@H](COCc2ccccc2)CC[C@@H](COCc2ccccc2)O1`, the figure is 57 to 59 °C; as for `Cc1c(SCc2ccsc2)ccnc1CSc1nc2ccccc2[nH]1`, 161 to 164 °C; as for `COC(=O)C(Cc1ccccc1)NC(=O)c1cc2cc(Cl)ccc2[nH]1` (centres undefined), 156 to 157 °C. Molecule `O=C(NO)C1(NS(=O)(=O)c2ccc(Oc3ccc(F)cc3)cc2)CCOCC1` had a melting point of 176 to 177 °C.

Consider `CCCCc1n[nH]c(=S)n(N)c1=O`, for which the melting point was 131 °C. `CC(C)n1nc(C#Cc2ccccc2F)ccc1=O` displayed a melting point of 84.5 to 86 °C.

`Nc1nc(Cl)cc(NCCCCO)n1`: the melting point fell in the range of 110 to 112 °C. In the case of `C[C@@H]1Cc2ccsc2[C@H](C)N1CCNC(=O)c1ccc(C(F)(F)F)cc1` (relative stereo) it was 88 to 91 °C; in that of `CCCCc1nc(SCCF)c(C(=O)OCC)n1Cc1ccc(-c2ccccc2C(=O)O)cc1`, 79 °C. With `Cn1c(COc2ccc(CC3SC(=O)NC3=O)cc2)nc2ccc(Oc3ccc(NC(=O)c4ccc5ccccc5c4)cc3)cc21` (centres undefined), the melting point fell in the range of 221 to 223 °C. In turn, `CCOC(=O)c1c(C(C)C)nn(-c2ccccc2)c1-c1ccc(F)cc1` came in with a melting point of 92 to 93 °C.

For `COc1ccc2cc([C@H](C)C(=O)OCC(=O)N(C)CCCO[N+](=O)[O-])ccc2c1`, the melting point was 104 to 105 °C. `OC1CSC(Oc2cncc(-c3cccnc3F)c2)C(O)C1O` (centres undefined) gave a melting point of 193 to 196 °C. As for `COCc1csc2c(C(=O)O)c(=O)c3cc4c(cc3n12)OCO4`, the melting point turned out to be 265 °C. Turning to `Cc1ccc(O)c(C)c1O`, the melting point was in the range of 102 to 104 °C. In the case of `Cc1c(C)c(N2Cc3ccccc3C2)c(C)c2c1OC(C)(C)C2c1ccccc1` (centres undefined) it was 164 to 166 °C; in that of `O=C(NCc1ccc(F)cc1)c1nc2n(c(=O)c1O)CCN2Cc1ccccc1`, 225 °C; in that of `COC(=O)c1ccc(NC(=O)CCc2cnoc2-c2ccccc2)cc1`, 111 to 112 °C. Molecule `CN(C)c1cc(C(=O)CS(C)(=O)=O)cc(N(C)C)c1C(C)(C)C` showed a melting point of 177 to 179 °C. Regarding `CC(=O)C(=O)Oc1c(C)cc(Nc2ccn(-c3ccccc3)n2)cc1C`, the melting point lay within 123 to 125 °C. As for `CC(C)(C)OC(=O)c1ccccc1-c1ccc(CNC(=S)NN)cc1`, the figure is > 45 °C; as for `O=C1Nc2ccc(C(F)(F)F)cc2C1c1ncnc2c1cnn2C1CCCCC1` (centres undefined), > 300 °C.
